From BigSolDB 2.1

O=[N+]([O-])N(CCO)CCO.O=[N+]([O-])O.O=[N+]([O-])O
solubility (mole fraction)
Details	in 1,2-dichloroethane	in 1,4-dioxane	in DMSO	in acetone	in acetonitrile	in dichloromethane	in ethanol	in ethyl acetate	in methanol	in toluene
283.15 K	0.388	0.191	0.0407	0.234	0.182	0.0359	0.00314	0.131	0.00238	0.0112
288.15 K	0.441	0.245	0.0506	0.26	0.258	0.0615	0.00518	0.17	0.00469	0.0143
293.15 K	0.524	0.318	0.0633	0.321	0.314	0.109	0.00751	0.209	0.0076	0.0177
298.15 K	0.587	0.371	0.0785	0.384	0.36	0.205	0.00986	0.285	0.0106	0.0252
303.15 K	0.641	0.425	0.107	0.439	0.456	0.367	0.0118	0.31	0.0126	0.0276
308.15 K	0.704	0.488	0.132	0.536	0.519	0.448	0.0131	0.334	0.0166	0.032
313.15 K	0.787	0.562	0.163	0.645	0.558	0.515	0.0139	0.362	0.0207	0.0374
